15 compounds from ChEMBL document CHEMBL5107991, “Conversion of oxadiazolo[3,4-b]pyrazines to imidazo[4,5-b]pyrazines via a tandem reduction-cyclization sequence generates new mitochondrial uncouplers” (Bioorg Med Chem Lett, 2022) can be followed below.

The source made the active and inactive calls. The calls are words filed in the database; no cut-off is given here. Bounds are passed on as bounds.

A short description of assay [1]: Induction of mitochondrial uncoupled respiration in rat L6 myoblasts assessed as increase in oxygen consumption rate at 10 uM measured by Agilent Seahorse XF analyzer. Format: functional.
Assay [2] in a line: (§1) Induction of mitochondrial uncoupled respiration in rat L6 myoblasts assessed as increase in oxygen consumption rate at 50 uM measured by Agilent Seahorse XF analyzer. It counts as functional.
A further assay concerns L6. The description is as §1. Format: functional.
Assay [3] is described as follows: Induction of mitochondrial uncoupled respiration in rat L6 myoblasts assessed as increase in oxygen consumption rate measured by Agilent Seahorse XF analyzer. It counts as functional, cell-based.

Consider `Fc1c(Nc2nc3nc(C(F)(F)F)[nH]c3nc2Nc2cccc(C(F)(F)F)c2F)cccc1C(F)(F)F`, for which the Activity in assay [1] is on record as over 150%.
Regarding `Fc1cccc(Nc2nc3[nH]c(C(F)(F)F)nc3nc2Nc2ccccc2F)c1`, the Activity was 100% in assay [1] and 150% in assay [2].
Turning to `FC(F)(F)c1nc2nc(Nc3ccccc3)c(Nc3ccccc3)nc2[nH]1`, the result with L6 was Active.
With `Cc1ccc(Nc2nc3[nH]c(C(F)(F)F)nc3nc2Nc2ccccc2F)cc1`, the Activity in assay [2] is 50%.
Regarding `Fc1ccccc1Nc1nc2nc(C(F)(F)F)[nH]c2nc1Nc1ccccc1`, the Activity in assay [2] is listed as 50%.
`Cn1c(C(F)(F)F)nc2nc(Nc3cc(C(F)(F)F)cc(C(F)(F)F)c3)c(Nc3cc(C(F)(F)F)cc(C(F)(F)F)c3)nc21`: the Activity in assay [1] was 100%; in assay [2] it was over 300%.
As to `Fc1ccccc1Nc1nc2nc(C(F)(F)F)[nH]c2nc1Nc1ccccc1F`, the Activity is reported as 50% in assay [1] and 150% in assay [2].
In the case of `FC(F)(F)c1cc(Nc2nc3nc(C(F)(F)F)[nH]c3nc2Nc2cc(C(F)(F)F)cc(C(F)(F)F)c2)cc(C(F)(F)F)c1`, the Activity in assay [2] is 100%.
With `Fc1ccc(C(F)(F)F)cc1Nc1nc2nc(C(F)(F)F)[nH]c2nc1Nc1cc(C(F)(F)F)ccc1F`, in assay [1], the Activity stood at 100%.
As to `Cn1c(C(F)(F)F)nc2nc(Nc3cc(C(F)(F)F)ccc3F)c(Nc3cc(C(F)(F)F)ccc3F)nc21`, the Activity in assay [2] is over 200%.
As for `FC(F)(F)c1nc2nc(Nc3ccccc3C(F)(F)F)c(Nc3ccccc3C(F)(F)F)nc2[nH]1`, in assay [1], the Activity is recorded as over 150%.
As for `Fc1cccc(Nc2nc3nc(C(F)(F)F)[nH]c3nc2Nc2cccc(F)c2F)c1F`, the Activity in assay [1] is over 150%.
Turning to `Cc1ccc(Nc2nc3nc(C(F)(F)F)[nH]c3nc2Nc2ccc(C)cc2)cc1`, the outcome in the assay on L6 was Active.
For `Fc1ccccc1Nc1nc2nc(C(F)(F)F)[nH]c2nc1NC1CCCCC1`, the Activity in assay [2] came to 125%.
Turning to `Oc1nc2nonc2nc1Nc1ccc(OC(F)(F)F)cc1`, the EC50 in assay [3] was 4.3 µM.

As usually defined, the EC50 is the midpoint of the concentration-response curve.
